Measured values reported in US5506354A, “Imidazolylpiperazinyl steroids” (The Upjohn Company, priority 1992, dated 1996).
Counter-ions that a name gives are not always drawn.

Assays:
arachidonic acid = test: Arachidonic Acid Antagonism Assay (AAAA), LD50 of sodium arachidonate; type: in vivo, Charles River male CF-1 mice; conditions: for arachidonic acid antagonism (activity in words): test compound IV 15 min before sodium arachidonate, LD50 outside 95% confidence interval of control
Protocol: Since these metabolites contribute to the pathological problems associated with stroke, spinal trauma and head injury, compounds which antagonize arachidonic acid are useful in treating stroke, spinal trauma and head injury.
While not necessary to determine arachidonic acid antagonism, the above assay has been modified as follows: Charles River male CF-1 mice weighing 18-22 g are treated IV with the test compound dissolved in 1.0% Tween-80 and 0.1% hydrochloric acid in distilled water, 0.2 ml total volume. Fifteen minutes later sodium arachidonate (90% pure) in physiological (normal) saline is injected into the tail vein. The LD50 is measured using the Spearman-Karber method with a log dose interval of 0.05 (N=6). Compounds which elevate the LD50 outside of the 95% confidence interval of the control LD50 are considered to be "active".

angiogenesis = test: Chick embryo assay of Folkman (inhibition of angiogenesis / tumor growth); type: in vivo; conditions: 50 μg/10 μl in the presence of heparin
Protocol: According to this procedure compounds which are considered to be "active" (i.e. antiangiogenic) give an avascular zone of 4 mm or greater in some embryos when tested at 50 μg/10 μl in the presence of 50 μg/10μ of heparin.

interleukin-1 = test: Inhibition of interleukin-1 induced T cell proliferation; type: cell-based; conditions: for inhibition of interleukin 1 (activity in words): active = greater than 30% at 10^-6 M
Description: The inhibition of interleukin-1 induced T cell proliferation assay, Proc. Nat. […] Since people with arthritis make excess interleukin 1, compounds which inhibit the activity of interleukin 1 are useful in the treatment of arthritis. According to this procedure compounds which inhibit the activity of interleukin 1 greater that 30% at 10^-6 M are considered to be "active".

Row | Structure (SMILES) | arachidonic acid antagonism (activity in words) (arachidonic acid) | further results
1 | CN1CCN(c2cc(N3CCN(CC(=O)[C@@]4(O)CC[C@H]5[C@@H]6CCC7=CC(=O)CC[C@]7(C)C6=CC[C@@]54C)CC3)nc(N3CCN(C)CC3)n2)CC1 [Example 19, 17α-Hydroxy-21-[4-[2,6-bis(4-methyl-1-piperazinyl)A-pyrimidinyl]-1-piperazinyl]-pregna-4,9(11)-diene-3,20-dione methanesulfonate hydrate] | demonstrate arachidonic acid antagonism | 
2 | COc1cccc(N2CCN(CC(=O)[C@@]3(O)CC[C@H]4[C@@H]5CCC6=CC(=O)CC[C@]6(C)C5=CC[C@@]43C)CC2)n1.CS(=O)(=O)O [Example 22, 17α-hydroxy-21-[4-(6-methoxy-2-pyridinyl)-1-piperazinyl]pregna-4,9(11)-diene-3,20-dione monomethanesulfonate] | demonstrate arachidonic acid antagonism | 
3 | CN(CCN(C)c1ccccn1)CC(=O)[C@@]1(O)CC[C@H]2[C@@H]3CCC4=CC(=O)CC[C@]4(C)C3=CC[C@@]21C [Example 24, 17α-hydroxy-21-[methyl[2-(methyl-2-pyridinylamino)ethyl]-aminopregna-4,9(11)-diene-3,20-dione dihydrochloride] | demonstrate arachidonic acid antagonism | inhibition of angiogenesis (activity in words) (angiogenesis): demonstrate inhibition of angiogenesis
4 | C[C@]12C=CC(=O)C=C1CC[C@@H]1[C@@H]2[C@@H](O)C[C@@]2(C)[C@H]1CC[C@]2(O)C(=O)CN1CCN(c2ccccn2)CC1 [Example 25, 11.uparw.,17α-dihydroxy-21-[4-(2-pyridinyl)-1-piperazinyl]pregna-1,4-diene-3,20-dione dihydrochloride] | demonstrate arachidonic acid antagonism | 
5 | C[C@]12CCC(=O)C=C1CC[C@@H]1[C@@H]2[C@H](O)C[C@@]2(C)[C@H]1CC[C@]2(O)C(=O)CN1CCN(c2ccc(F)cc2)CC1 [Example 29, 21-[4-(4-fluorophenyl)-1-piperazinyl]-11α,17α-dihydroxypregn-4-ene-3,20-dione dihydrochloride] | demonstrate arachidonic acid antagonism | 
6 | COc1ccc(CCN(CC(=O)[C@@]2(O)CC[C@H]3[C@@H]4CCC5=CC(=O)CC[C@]5(C)C4=CC[C@@]32C)Cc2cc(OC)c(OC)c(OC)c2)cc1OC [Example 37, 17α-hydroxy-21-[[2-(3,4-dimethoxy-phenyl)ethyl]-[3,4,5-trimethoxyphenyl)methyl]amino]pregna-4,9(11)diene-3,20-dione hydrochloride] |  | inhibition of interleukin 1 (activity in words) (interleukin-1): demonstrate inhibition of interleukin 1; inhibition of angiogenesis (activity in words) (angiogenesis): demonstrate inhibition of angiogenesis
7 | COc1ccccc1N1CCN(CC(=O)[C@@]2(O)CC[C@H]3[C@@H]4CCC5=CC(=O)CC[C@]5(C)[C@H]4CC[C@@]32C)CC1.Cl.Cl.O [Example 41, 17α-hydroxy-21-[4-(2-methoxyphenyl)-1-piperazinyl]pregn-4-ene-3,20-dione dihydrochloride hydrate] | demonstrate arachidonic acid antagonism | % of Embryos with 4 mm or Greater Avascular Zone (angiogenesis): 80%
8 | C[C@]12CC(=O)[C@H]3[C@@H](CCC4=CC(=O)CC[C@@]43C)[C@@H]1CC[C@@H]2C(=O)CN1CCN(c2ccccn2)CC1.Cl.O [Example 45, 21-[4-(2-pyridinyl)-1-piperazinyl]pregn-4-ene-3,11,20-trione hydrochloride hydrate] | demonstrate arachidonic acid antagonism | 
9 | COc1ccc(CCN(CC(=O)[C@@]2(O)CC[C@H]3[C@@H]4CCC5=CC(=O)CC[C@]5(C)C4=CC[C@@]32C)Cc2ccc(N(C)C)cc2)cc1OC [Example 51, 17α-hydroxy-21-[[2-(3,4-dimethoxyphenyl)ethyl]-4-(dimethylamino)-phenyl]methyl]amino]pregna-4,9(11)-3,20-dione hydrochloride] | demonstrate arachidonic acid antagonism | 
10 | CCN(CC)c1cc(N2CCN(CC(=O)[C@@]3(O)CC[C@H]4[C@@H]5CCC6=CC(=O)CC[C@]6(C)[C@H]5CC[C@@]43C)CC2)nc(N(CC)CC)n1 [Example 53, 21-[4-[2,6-bis(diethylamino)4-pyrimidinyl]-1-piperazinyl]-17α-hydroxypregn-4-ene-3,20-dione] | demonstrate arachidonic acid antagonism | 
11 | C[C@]12CCC(=O)C=C1CC[C@@H]1C2=CC[C@@]2(C)[C@H]1CC[C@]2(O)C(=O)CN1CCN(Cc2ccccn2)CC1 [Example 54, 17α-hydroxy-21-[4-(2-pyridinylmethyl)-1-piperazinyl]-pregna-4,9(11)-diene-3,20-dione (E)-2-butenedioate 1:1 salt] | demonstrate arachidonic acid antagonism | 
12 | CCN(CC)c1cc(N2CCN(C(=O)[C@@]3(O)CC[C@H]4[C@@H]5CCC6=CC(=O)CC[C@]6(C)[C@H]5CC[C@@]43C)CC2)nc(N(CC)CC)n1 [Example 57] | demonstrate arachidonic acid antagonism | % of Control LD50 100 mg/kg (arachidonic acid; 100 mg/kg, test compound IV): 124%
13 | C=CCNc1nc(NCC=C)nc(N2CCN(CC(=O)[C@@]3(O)CC[C@H]4[C@@H]5CCC6=CC(=O)CC[C@]6(C)C5=CC[C@@]43C)CC2)n1.Cl.Cl.O [Example 60, 17α-hydroxy-21-[4-[4,6-bis(2-propenylamino)-1,3,5-triazin-2-yl]-1-piperazinyl]pregna-4,9(11)-diene-3,20-dione dihydrochloride hydrate] | demonstrate arachidonic acid antagonism | 
14 | C[C@]12CCC(=O)C=C1CC[C@@H]1C2=CC[C@@]2(C)[C@H]1CC[C@]2(O)C(=O)CN1CCN(c2cc(N3CCCC3)nc(N3CCCC3)n2)CC1 [Example 64, 17α-hydroxy-21-[4-[2,6-bis(1-pyrrolidinyl)-4-pyrimidinyl]-1-piperazinyl]-pregna-4,9(11)-diene-3,20-dione (E)-2-butenedioate (1:1) salt] |  | inhibition of angiogenesis (activity in words) (angiogenesis): demonstrate inhibition of angiogenesis
15 | C[C@]12C=CC(=O)C=C1CC[C@@H]1C2=CC[C@@]2(C)[C@H]1CC[C@]2(O)C(=O)CN1CCN(c2cc(N3CCCC3)nc(N3CCCC3)n2)CC1.Cl.Cl.O [Example 74, 17α-hydroxy-21-[4-[2,6-di-(1-pyrrolidinyl)-4-pyrimidinyl]-1-piperazinyl] pregna-1,4,9(11)-triene-3,20-dione dihydrochloride hydrate] | demonstrate arachidonic acid antagonism | 
16 | CCN(CC)c1cc(N2CCN(CC(=O)[C@@]3(O)CC[C@H]4[C@@H]5CCC6=CC(=O)C=C[C@]6(C)C5=CC[C@@]43C)CC2)nc(N(CC)CC)n1.Cl.Cl.O [Example 75, 21-[4-[2,6-bis(diethylamino)4-pyrimidinyl]-1-piperazinyl]-17α-hydroxypregna-1,4,9(11)-triene-3,20-dione dihydrochloride hydrate] | demonstrate arachidonic acid antagonism | 
17 | C[C@]12CCC(=O)C=C1CC[C@@H]1C2=CC[C@@]2(C)[C@H]1CC[C@]2(O)C(=O)CN1CCOCC1 [Example 93, 17α-hydroxy-21-(4-morpholino)-pregna4,9(11)-diene-3,20-dione (E)-2-butanedioate (1:1) salt] | demonstrate arachidonic acid antagonism | 
18 | C[C@]12CC(=O)[C@H]3[C@@H](CCC4=CC(=O)CC[C@@]43C)[C@@H]1CC[C@@H]2C(=O)CN1CCN(c2cc(N3CCCC3)nc(N3CCCC3)n2)CC1.Cl.Cl [Example 94, 21-[4-[2,6-bis(1-pyrrolidinyl)-4-pyrimidinyl]-1-piperazinyl]pregn-4-ene-3,11,20-trione dihydrochloride] |  | inhibition of interleukin 1 (activity in words) (interleukin-1): demonstrate inhibition of interleukin 1
19 | CCN(CC)c1ccc(N(C)C)c(N2CCN(CC(=O)[C@@]3(O)CC[C@H]4[C@@H]5CCC6=CC(=O)CC[C@]6(C)C5=CC[C@@]43C)CC2)n1.Cl.Cl [Example 96, 21-[4-[6-(diethylamino)-3-(dimethylamino)-2-pyridinyl]-1-piperazinyl]-17α-hydroxypregna-4,9(11)-diene-3,20-dione dihydrochloride] |  | inhibition of interleukin 1 (activity in words) (interleukin-1): demonstrate inhibition of interleukin 1; % Inhibition at 10^-6 M (interleukin-1; interleukin 1, 10^-6 M): 77%
20 | C[C@]12CC[C@H]3[C@@H](CCC4=CC(=O)C=C[C@@]43C)[C@@H]1CC[C@@H]2C(=O)CN1CCN(c2cc(N3CCCC3)nc(N3CCCC3)n2)CC1.Cl.Cl [Example 97, 21-[4-[2,6-di-(1-pyrrolidinyl)-4-pyrimidinyl]-1-piperazinyl]-pregna-1,4-diene-3,20-dione dihydrochloride] |  | inhibition of interleukin 1 (activity in words) (interleukin-1): demonstrate inhibition of interleukin 1; inhibition of angiogenesis (activity in words) (angiogenesis): demonstrate inhibition of angiogenesis
21 | C[C@]12CC[C@@H](O)C[C@H]1CC[C@@H]1[C@@H]2C(=O)C[C@@]2(C)[C@H]1CC[C@]2(O)C(=O)CN1CCN(c2ccccn2)CC1 [Example 99, 3α,17α-dihydroxy-21-[4-(2-pyridinyl)-1-piperazinyl]-5β-pregnane-11,20-dione dihydrochloride hydrate] |  | inhibition of angiogenesis (activity in words) (angiogenesis): demonstrate inhibition of angiogenesis
22 | CN1CCN(CC(=O)[C@@]2(O)CC[C@H]3[C@@H]4CCC5=CC(=O)CC[C@]5(C)C4=CC[C@@]32C)CC1 [Example 101, 17α-hydroxy-21-(4-methyl-1-piperazinyl)pregna-4,9(11)-diene-3,20-dione] |  | inhibition of interleukin 1 (activity in words) (interleukin-1): demonstrate inhibition of interleukin 1
